Data: patent publication US9365540B2, “Benzimidazole derivatives as MCH receptor antagonists” (Takeda Pharmaceutical Company Limited, priority 2012, dated 2016)

Key:
[1] = biological target: T1, human MCHR1 (Homo sapiens, UniProt Q99705); assay: MCH receptor 1 antagonistic activity, Ca2+ mobilization assay; format: cell-based; details: CHO, test compound 0.1 μM; human MCHR1-expressing CHO cells (clone #4); ligand MCH(4-19) 2 nM; read-out: Inhibitory rate % (0.1 μM)
T1 construct: expressed in transfected cells; host or cells: CHO dhfr- cells, clone #4
T1 sequence (Q99705 whole entry): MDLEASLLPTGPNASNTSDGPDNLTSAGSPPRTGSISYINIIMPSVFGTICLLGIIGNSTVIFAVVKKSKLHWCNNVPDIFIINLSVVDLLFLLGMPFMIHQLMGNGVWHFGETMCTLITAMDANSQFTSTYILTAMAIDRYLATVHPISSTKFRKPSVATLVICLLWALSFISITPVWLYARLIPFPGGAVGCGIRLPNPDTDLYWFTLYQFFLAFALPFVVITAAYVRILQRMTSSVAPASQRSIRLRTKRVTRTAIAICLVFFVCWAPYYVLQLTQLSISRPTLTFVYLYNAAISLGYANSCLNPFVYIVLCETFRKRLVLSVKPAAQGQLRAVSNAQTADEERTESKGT
Procedure: Measurement of MCH Receptor 1 Antagonistic Activity of Test Compound Using Ca^2+ Mobilization Assay Using an expression vector plasmid introduced with human MCHR1 gene for expression in animal cells, human MCHR1 gene was introduced into CHO cells (CHO dhfr^−) by Lipofectamine LTX (Invitrogen). The cells were cultured in selection MEMα medium [445 mL of MEMα medium without nucleic acid and added with 5 mL of Penicillin-Streptomycin (Invitrogen) and 50 mL of dialyzed fetal bovine serum]. Colony 24 clones grown in the selection medium, which were human MCHR1 gene-expressing CHO cell candidates, were selected. […] In the following test, this human MCHR1-expressing CHO cell (clone #4) was used. An integrated dispensing function fluorometer (CellLux, PerkinElmer) was used for Ca^2+ mobilization assay. […] The medium was removed, and the cells were washed with phosphate buffered saline (PBS). […] The plate was set on a plate reader. […] The inhibition rates (%) of test compounds (0.1 μM) as antagonist activity measured using human MCHR1-expressing CHO cells (clone #4) are shown in the following Table 3.

[2] = biological target: T2, human MCH receptor 1 (MCHR1) (Homo sapiens, UniProt Q99705); assay: human MCH receptor 1 (MCHR1) competitive binding assay with [125I]-MCH(4-19); details: test compound 0.1 μM, human MCHR1-expressing CHO cell membrane fraction, read-out: Binding inhibition rate % (0.1 μM)
T2 construct: expressed in transfected cells; host or cells: CHO cell clone 57 (membrane fraction)
T2 sequence (Q99705 whole entry): as above
Method in brief: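 Membranes from CHO cells expressing human MCHR1 incubated with [125I]-MCH(4-19) and test compound in 20 mM Tris-HCl pH 7.5/5 mM EDTA with protease inhibitors, 1 hr at room temperature. Bound radioactivity collected on PEI-treated GF/C filters; % inhibition at 0.1 μM compound, nonspecific binding set with cold MCH(1-19).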

Structure (SMILES): Cn1c(-c2cnco2)nc2ccc(-n3ccc(OCc4ccc(F)cc4)cc3=O)cc21 [Example 69, 4-((4-Fluorobenzyl)oxy)-1-(1-methyl-2-(1,3-oxazol-5-yl)-1H-benzimidazol-6-yl)pyridin-2(1H)-one]
- inhibition at 0.1 µM [1]: 58%
- inhibition at 0.1 µM [2]: 65%

Structure (SMILES): Cc1c(C2CC2)nc2ccc(-n3ccc(OCc4ccc(Cl)cc4)nc3=O)cn12 [Example 70, 4-((4-Chlorobenzyl)oxy)-1-(2-cyclopropyl-3-methylimidazo[1,2-a]pyridin-6-yl)pyrimidin-2(1H)-one]
- inhibition at 0.1 µM [1]: 35%
- inhibition at 0.1 µM [2]: 79%

Structure (SMILES): Cn1c(C2CC2)nc2ccc(-n3ccc(OCc4ccccc4F)cc3=O)cc21 [Example 71, 1-(2-Cyclopropyl-1-methyl-1H-benzimidazol-6-yl)-4-((2-fluorobenzyl)oxy)pyridin-2(1H)-one]
- inhibition at 0.1 µM [1]: 43%
- inhibition at 0.1 µM [2]: 72%

Structure (SMILES): Cn1c(C2CC2)nc2ccc(-n3ccc(OCc4cccc(F)c4)cc3=O)cc21 [Example 72, 1-(2-Cyclopropyl-1-methyl-1H-benzimidazol-6-yl)-4-((3-fluorobenzyl)oxy)pyridin-2(1H)-one]
- inhibition at 0.1 µM [1]: 58%
- inhibition at 0.1 µM [2]: 80%

Structure (SMILES): Cn1c(C2CC2)nc2ccc(-n3ccc(OCc4ccsc4)cc3=O)cc21 [Example 75, 1-(2-Cyclopropyl-1-methyl-1H-benzimidazol-6-yl)-4-(3-thienylmethoxy)pyridin-2(1H)-one]
- inhibition at 0.1 µM [1]: 80%
- inhibition at 0.1 µM [2]: 84%

Structure (SMILES): Cc1ncoc1-c1nc2ccc(-n3ccc(OCc4ccc(F)cc4)cc3=O)cc2n1C [Example 89, 4-((4-Fluorobenzyl)oxy)-1-(1-methyl-2-(4-methyl-1,3-oxazol-5-yl)-1H-benzimidazol-6-yl)pyridin-2(1H)-one]
- inhibition at 0.1 µM [1]: 46%
- inhibition at 0.1 µM [2]: 73%

Structure (SMILES): Cn1c(CC2CC2)nc2ccc(-n3ccc(OCc4ccc(Cl)cc4)cc3=O)cc21 [Example 91, 4-((4-Chlorobenzyl)oxy)-1-(2-(cyclopropylmethyl)-1-methyl-1H-benzimidazol-6-yl)pyridin-2(1H)-one]
- inhibition at 0.1 µM [1]: 70%
- inhibition at 0.1 µM [2]: 67%

Structure (SMILES): CCc1nc2ccc(-n3ccc(OCc4ccc(Cl)cc4)cc3=O)cc2n1C [Example 102, 4-((4-Chlorobenzyl)oxy)-1-(2-ethyl-1-methyl-1H-benzimidazol-6-yl)pyridin-2(1H)-one]
- inhibition at 0.1 µM [1]: 97%
- inhibition at 0.1 µM [2]: 75%

Structure (SMILES): CCCc1nc2ccc(-n3ccc(OCc4ccc(Cl)cc4)cc3=O)cc2n1C [Example 103, 4-((4-Chlorobenzyl)oxy)-1-(1-methyl-2-propyl-1H-benzimidazol-6-yl)pyridin-2(1H)-one]
- inhibition at 0.1 µM [1]: 63%
- inhibition at 0.1 µM [2]: 78%

Structure (SMILES): CC(=O)c1nc2ccc(-n3ccc(OCc4ccc(Cl)cc4)cc3=O)cc2n1C [Example 104, 1-(2-Acetyl-1-methyl-1H-benzimidazol-6-yl)-4-((4-chlorobenzyl)oxy)pyridin-2(1H)-one]
- inhibition at 0.1 µM [1]: 61%
- inhibition at 0.1 µM [2]: 60%

Structure (SMILES): Cc1nc2ccc(-n3ccc(OCc4ccc(Cl)cc4)cc3=O)cc2n1C [Example 107, 4-((4-Chlorobenzyl)oxy)-1-(1,2-dimethyl-1H-benzimidazol-6-yl)pyridin-2(1H)-one]
- inhibition at 0.1 µM [1]: 101%
- inhibition at 0.1 µM [2]: 60%

Structure (SMILES): Cn1c(C2CC2)nc2ccc(-n3ccc(OCc4cccs4)cc3=O)cc21 [Example 124, 1-(2-Cyclopropyl-1-methyl-1H-benzimidazol-6-yl)-4-(2-thienylmethoxy)pyridin-2(1H)-one]
- inhibition at 0.1 µM [1]: 80%
- inhibition at 0.1 µM [2]: 58%

Structure (SMILES): Cn1c(C2CC2)nc2ccc(-n3ccc(OCc4cccc(Cl)c4)cc3=O)cc21 [Example 127, 4-((3-Chlorobenzyl)oxy)-1-(2-cyclopropyl-1-methyl-1H-benzimidazol-6-yl)pyridin-2(1H)-one]
- inhibition at 0.1 µM [1]: 77%
- inhibition at 0.1 µM [2]: 80%

Structure (SMILES): Cc1c(C2CC2)nc2ccc(-n3ccc(OCc4cccc(F)c4)cc3=O)cn12 [Example 130, 1-(2-Cyclopropyl-3-methylimidazo[1,2-a]pyridin-6-yl)-4-((3-fluorobenzyl)oxy)pyridin-2(1H)-one]
- inhibition at 0.1 µM [1]: 99%
- inhibition at 0.1 µM [2]: 79%

Structure (SMILES): Cc1c(C2CC2)nc2ccc(-n3ccc(OCc4cccs4)cc3=O)cn12 [Example 132, 1-(2-Cyclopropyl-3-methylimidazo[1,2-a]pyridin-6-yl)-4-(2-thienylmethoxy)pyridin-2(1H)-one]
- inhibition at 0.1 µM [1]: 96%
- inhibition at 0.1 µM [2]: 51%

Structure (SMILES): Cc1c(C2CC2)nc2ccc(-n3ccc(OCc4ccsc4)cc3=O)cn12 [Example 133, 1-(2-Cyclopropyl-3-methylimidazo[1,2-a]pyridin-6-yl)-4-(3-thienylmethoxy)pyridin-2(1H)-one]
- inhibition at 0.1 µM [1]: 98%
- inhibition at 0.1 µM [2]: 79%

Structure (SMILES): Cn1c(C2CC2)nc2ccc(-n3ccc(OCc4ccc(F)s4)cc3=O)cc21 [Example 157, 1-(2-Cyclopropyl-1-methyl-1H-benzimidazol-6-yl)-4-((5-fluorothiophen-2-yl)methoxy)pyridin-2(1H)-one]
- inhibition at 0.1 µM [1]: 95%
- inhibition at 0.1 µM [2]: 71%

Structure (SMILES): Cn1c(C2CC2)nc2ccc(-n3ccc(OCc4ccc(C(F)(F)F)s4)cc3=O)cc21 [Example 159, 1-(2-Cyclopropyl-1-methyl-1H-benzimidazol-6-yl)-4-((5-(trifluoromethyl)thiophen-2-yl)methoxy)pyridin-2(1H)-one]
- inhibition at 0.1 µM [1]: 107%
- inhibition at 0.1 µM [2]: 87%

Structure (SMILES): Cc1c(C2CC2)nc2ccc(-n3ccc(OCc4csc(Cl)c4)cc3=O)cn12 [Example 164, 4-((5-Chlorothiophen-3-yl)methoxy)-1-(2-cyclopropyl-3-methylimidazo[1,2-a]pyridin-6-yl)pyridin-2(1H)-one]
- inhibition at 0.1 µM [1]: 102%
- inhibition at 0.1 µM [2]: 92%

Structure (SMILES): Cc1c(C2CC2)nc2ccc(-n3ccc(OCc4cc(Cl)cs4)cc3=O)cn12 [Example 168, 4-((4-Chlorothiophen-2-yl)methoxy)-1-(2-cyclopropyl-3-methylimidazo[1,2-a]pyridin-6-yl)pyridin-2(1H)-one]
- inhibition at 0.1 µM [1]: 103%
- inhibition at 0.1 µM [2]: 84%

Structure (SMILES): Cc1c(C2CC2)nc2ccc(-n3ccc(COc4ccc(F)cc4)cc3=O)cn12 [Example 170, 1-(2-Cyclopropyl-3-methylimidazo[1,2-a]pyridin-6-yl)-4-((4-fluorophenoxy)methyl)pyridin-2(1H)-one]
- inhibition at 0.1 µM [1]: 62%
- inhibition at 0.1 µM [2]: 23%

Structure (SMILES): Cc1c(C2CC2)nc2ccc(-n3ccc(OCc4csc(Br)c4)cc3=O)cn12 [Example 177, 4-((5-Bromo-3-thienyl)methoxy)-1-(2-cyclopropyl-3-methylimidazo[1,2-a]pyridin-6-yl)pyridin-2(1H)-one]
- inhibition at 0.1 µM [1]: 97%
- inhibition at 0.1 µM [2]: 97%

Structure (SMILES): Cc1c(C2CC2)nc2ccc(-n3ccc(OCc4ccc(C(F)F)s4)cc3=O)cn12 [Example 178, 1-(2-Cyclopropyl-3-methylimidazo[1,2-a]pyridin-6-yl)-4-((5-(difluoromethyl)-2-thienyl)methoxy)pyridin-2(1H)-one]
- inhibition at 0.1 µM [1]: 69%
- inhibition at 0.1 µM [2]: 74%

Structure (SMILES): Cc1c(C2CC2)nc2ccc(-n3ccc(OCc4csc(C(F)(F)F)n4)cc3=O)cn12 [Example 179, 1-(2-Cyclopropyl-3-methylimidazo[1,2-a]pyridin-6-yl)-4-((2-(trifluoromethyl)-1,3-thiazol-4-yl)methoxy)pyridin-2(1H)-one]
- inhibition at 0.1 µM [1]: 94%
- inhibition at 0.1 µM [2]: 64%

Structure (SMILES): Cc1c(C2CC2)nc2ccc(-n3ccc(OCc4ccc(C(F)(F)F)o4)cc3=O)cn12 [Example 180, 1-(2-Cyclopropyl-3-methylimidazo[1,2-a]pyridin-6-yl)-4-((5-(trifluoromethyl)-2-furyl)methoxy)pyridin-2(1H)-one]
- inhibition at 0.1 µM [1]: 99%
- inhibition at 0.1 µM [2]: 64%

Structure (SMILES): Cc1c(C2CC2)nc2ccc(-n3ccc(NCc4ccc(Cl)s4)cc3=O)cn12 [Example 181, 4-(((5-Chloro-2-thienyl)methyl)amino)-1-(2-cyclopropyl-3-methylimidazo[1,2-a]pyridin-6-yl)pyridin-2(1H)-one]
- inhibition at 0.1 µM [1]: 21%
- inhibition at 0.1 µM [2]: 57%

Structure (SMILES): Cc1c(C2CC2)nc2ccc(-n3ccc(OCc4csc(C(F)(F)F)c4)cc3=O)cn12 [Example 183, 1-(2-Cyclopropyl-3-methylimidazo[1,2-a]pyridin-6-yl)-4-((5-(trifluoromethyl)-3-thienyl)methoxy)pyridin-2(1H)-one]
- inhibition at 0.1 µM [1]: 75%
- inhibition at 0.1 µM [2]: 91%

Structure (SMILES): Cc1c(C2CC2)nc2ccc(-n3ccc(NCc4ccc(Cl)cc4)cc3=O)cn12 [Example 186, 4-((4-Chlorobenzyl)amino)-1-(2-cyclopropyl-3-methylimidazo[1,2-a]pyridin-6-yl)pyridin-2(1H)-one]
- inhibition at 0.1 µM [1]: 74%
- inhibition at 0.1 µM [2]: 25%

Structure (SMILES): Cc1c(C2CC2)nc2ccc(-n3ccc(OCc4csc(Br)n4)cc3=O)cn12 [Example 189, 4-((2-Bromo-1,3-thiazol-4-yl)methoxy)-1-(2-cyclopropyl-3-methylimidazo[1,2-a]pyridin-6-yl)pyridin-2(1H)-one]
- inhibition at 0.1 µM [1]: 100%
- inhibition at 0.1 µM [2]: 86%
